Assay results from PMC9791135, “A penetratin-derived peptide reduces the membrane permeabilization and cell toxicity of α-synuclein oligomers” (The Journal of Biological Chemistry, 2022).

Legend:
αSOs = target: T1, αSOs (Homo sapiens, UniProt P37840); experiment: Calcein release assay, αSOs together with peptides; assay type: biochemical; conditions: αSOs at calcein^50% (5.2 μg/ml)
T1 construct: made in house; host or cells: Escherichia coli BL21 (DE3); oligomers formed by shaking the monomer and isolated by SEC (Superose 6)
Method: (§1) αSOs show cytotoxic properties, which have been attributed to their membrane-disrupting ability ([69]). To examine the effect of peptides on membrane permeabilization by αSOs, we used a simple calcein release assay. αSOs, peptides, and aSO–peptide mixtures at 10^−6 to 10^−1 mg/ml peptide were added to calcein-loaded DOPG vesicle, and the extent of calcein release was monitored for 30 min by the increase in fluorescence as calcein leaks out upon membrane permeabilization, leading to dilution and the loss of self-quenching. The time-dependent calcein release data from DOPG vesicles ([70], [71]) in the presence of peptides, αSOs, and αSO–peptides are shown in Figs. S9 and S10. In order to allow easy comparison of all peptides, the calcein release versus concentration (peptides and αSOs) were plotted at the plateau point of release (Fig. 5, A–C). […] Figure 5D compares calcein release percentages of data represented in Figure 5, A and B at peptide concentrations between 0.001 and 0.1 mg/ml, where we see the largest extent of calcein release in general.
(§2) Calcein-filled vesicles of DOPG were prepared as described before ([38]). Briefly, DOPG was dissolved in PBS to […], in the presence of calcein at self-quenching concentrations (70 mM) and subjected to 10 freeze–thaw cycles between liquid nitrogen and a 50 °C water bath. After 21 times extrusion through a 100 nm filter, free calcein was separated from vesicles with a PD-10 desalting column (GE Healthcare). Vesicles were stored at 4 °C and used for calcein release assays within 24 h.
(§3) Calcein release was measured by mixing peptides and/or αSOs at a final concentration of 10^−6 to 10^−1 mg/ml and 5.2 μg/ml, respectively, in 148 μl with 2 μl of calcein vesicles, and were then loaded onto a 96-well plate (Nunc, Thermo Fischer Scientific) in triplicate. The plate was sealed with Crystal clear sealing tape (Hampton Research), and fluorescence was measured (excitation: 485 nm and emission: 520 nm) for 1 h at 37 °C every 2 min with a 2 s autoshake before each reading on a fluorescence plate reader (Tecan). Finally, 2 μl Triton X-100 (0.2% [v/v]) was added to lyse vesicles, and the maximal fluorescence signal was measured for 20 min under the same reading condition. Background fluorescence was subtracted, and the average signal of calcein release before addition of Triton X-100 (F), after treatment with Triton X-100 (Ft) and for the buffer control (F0) were determined, and calcein release percentage was calculated as follow (Equation 1):(1) CalceinRelease%(CR%)=(F−F0)/(Ft−F0)

α-syn [1] = target: T2, α-syn (Homo sapiens, UniProt P37840); experiment: SDS-PAGE of soluble α-syn left in supernatant after fibrillation; assay type: biochemical; conditions: SDS-PAGE after centrifugation of fibrillated samples
T2 construct: made in house; host or cells: Escherichia coli BL21 (DE3), plasmid pET11-D
Method: Overall, there was a reasonable but not perfect correspondence between SDS-PAGE and ThT data.
To determine the amount of soluble α-syn, fibrillated samples were centrifuged (13,000 rpm, 15 min) and the supernatants were loaded on Bis–Tris 15% acrylamide gel with prestained protein ladder (Thermo Scientific) and run in a Bis–Tris running buffer at 150 V for 70 min, stained for 20 min in Coomassie brilliant blue (1.2 mM Coomassie brilliant blue, 5% ethanol, and 7% acetic acid), and destained overnight in a destaining solution (5% ethanol and 5% acetic acid). Gel bands were quantified using ImageJ.

α-syn [2] = target: T2, α-syn; experiment: ThT fluorescence assay of unseeded α-syn fibrillation in the presence of peptides; assay type: biochemical; conditions: 1 mg/ml α-syn, 0–0.5 mg/ml peptide, 48 h
Method: To test the effects of these selected nine peptides on the aggregation of α-syn, we performed a thioflavin T (ThT) fluorescence assay in the presence of 1 mg/ml α-syn and 0 to 0.5 mg/ml peptide for 48 h (raw data in Fig. S3). Furthermore, the peptides alone were monitored for self-fibrillation. […] High concentrations of p222, p194, and p249 led to a decline in ThT fluorescence after reaching a plateau, possibly because of the formation of insoluble amorphous species. We also carried out seeding experiments by adding 5% sonicated preaggregated α-syn fibrils to the ThT assay.
About 150 μl of 70 μM (1 mg/ml) α-syn, 40 μM ThT, and varying amounts of peptides (0, 0.06, 0.125, 0. 25, 0.375, and 0.5 mg/ml) were transferred in triplicates to a black COSTAR 96-well clear bottom plate (Nunc, Thermo Fisher Scientific), and including a 3 mm diameter glass bead (Glaswarenfabrik Karl Hecht GmbH & Co KG) per well to increase reproducibility ([100]). The plate was sealed with Crystal Clear sealing tape (Hampton Research) and incubated at 37 °C in a CLARIOstar Plus (BMG LABTECH) fluorescence plate reader. Fibrillation was carried out for ∼48 h with 300 rpm double orbital shaking between the readings for 372 s (excitation/emission: 448∕485 nm). Seeding experiments were performed using the same setting as for the fibrillation assay as described ([39]). Briefly, the experiments were done in triplicates in the presence of 0.05 mg/ml of α-syn fibril seeds (5% seeding) and 1 mg/ml of peptides in a solution of 1 mg/ml α-syn in 96-well plates.

[3] = Calcein release assay, substance alone; conditions: for Permeabilization of lipid vesicles by peptide alone: calcein-loaded DOPG vesicles, 10^−6 to 10^−1 mg/ml peptide, 37 °C, triplicate
Method: as §1, §2, §3

α-syn [4] = target: T2, α-syn; experiment: Far-UV CD of fibrillated α-syn–peptide samples; assay type: biochemical; conditions: fibrillated samples after washing, signal at 218 nm; versus α-syn alone
Source text: (§4) To analyze the secondary structure of the final aggregates, we recorded far-UV CD and attenuated total reflectance (ATR)–FTIR spectra for fibrillated samples after washing to remove free α-syn and peptides. […] Overall, as the concentration of peptides increases, the intensity of signal at 218 nm decreases (Fig. 4A). We observed that α-syn fibrils formed in the presence of p194, p222, p235, and p249 precipitated rapidly after mixing with these peptides. This likely gives rise to light scattering, which reduces CD signals. To overcome these artifacts, we turned to ATR–FTIR spectroscopy, which is not sensitive to scattering. […] Both far-UV CD and ATR–FTIR spectroscopy confirm extensive β-sheet structure. However, in the presence of peptides, some structural changes were observed as reflected by the decrease in the amyloid cross β-sheet structure at ∼1629 cm^−1 and increases in the random and coil structures (∼1656 and ∼1676 cm^−1, respectively) (Table 2). […] Taking all together, ATR–FTIR data are in reasonable agreement with far-UV CD.
To remove free α-syn and peptides, fibrillated samples were centrifuged (13,000 rpm, 15 min). This leaves monomeric α-syn plus unbound and free peptides in the supernatant. The supernatant was discarded, and the pellet was washed two times in the same volume of PBS buffer, pH 7.4, to ensure complete removal of monomeric α-syn and free peptides. Far-UV CD spectra were recorded at 25 °C on a Chirascan CD Spectrophotometer (Applied Photophysics) using a 0.1 mm quartz cuvette in the wavelength range of 200 to 260 nm with 1 nm bandwidth and three accumulations. The buffer spectrum was subtracted, and the results were expressed as mean residue ellipticity [θ] (deg cm^2 dmol^−1).

α-syn [5] = target: T2, α-syn; experiment: ATR–FTIR of fibrillated α-syn–peptide samples; assay type: biochemical; conditions: for ATR–FTIR (amyloid structures): fibrillated samples after washing, versus α-syn alone; for Amount of amyloid structures (ATR–FTIR), in words: fibrillated α-syn samples in the presence of peptides
Source text: as §4
The samples prepared in the CD section were also used to measure FTIR spectra on a Tensor 27 FTIR spectrophotometer (Bruker). About 2 μl α-syn fibrils were dried on the ATR crystal with a gentle stream of nitrogen gas. Spectra were accumulations of 68 scans in the 4000 to 1000 cm^−1 range. Baseline correlation, second derivative, and atmospheric compensation were performed with OPUS 5.5 software (Bruker, Germany). Signals in the amide I region (∼1550–1700 cm^−1) were smoothed and deconvoluted with PeakFit, version 4.12 software (ِSystat Software Inc) using Lorentzian fitting.

α-syn [6] = target: T2, α-syn; experiment: TEM of α-syn aggregates formed with peptides; assay type: biochemical; conditions: α-syn incubated in the presence of peptide
Method: Five microliters of each fibril-containing solution were applied to 400-mesh carbon-coated and glow-discharged nickel grids for 30 s, and blotted with filter paper to remove excess sample. The grids were washed with one drop of double distilled water and then stained with 3 μl of 1% uranyl formate for 15 s. Excess stain was removed by blotting paper This step was repeated two more times. Finally, the grids were left to air dry and viewed on a Tecnai G2 Spirit (FEI Company) operating at 60 kV, and images were taken using a TemCam F416 camera (TVIPS).

Aβ = conditions: cited from earlier work
Source text: Penetratin is a widely used CPP. Translocation of full-length and N-terminal truncated ([82]) penetratin has been observed in all cell types, and it is also able to cross the blood–brain barrier (BBB) ([83]). Its mechanism of translocation in live cells is complex and involves structural changes from random coil to α-helix ([84]) and transient formation of tubes or inverted micelles in the membrane that entrap the peptide in its interior. […]. The presence of Trp and net positively charged amino acid residues are important for formation of inverted ...

## KEGVVAAAEKTKQG [p12]
αSOs; peptide 10^−6 to 10^−1 mg/ml
  Effect on vesicle permeabilization by αSOs: failed to affect vesicle permeabilization by αSOs
α-syn [1]
  Amount of soluble α-syn monomer left in the supernatant, in words: do not affect the amount of monomer left in the supernatant
α-syn [2]
  Effect on α-syn aggregation (ThT), in words: did not change the lag phase duration
[3]
  Permeabilization of lipid vesicles by peptide alone: did not permeabilize lipid vesicles
α-syn [4]
  Far-UV CD (β-sheet structures): ↓β
α-syn [5]
  ATR–FTIR (amyloid structures): ↓ amyl
  Amount of amyloid structures (ATR–FTIR), in words: did not show significant changes in FTIR spectra
α-syn [6]
  Morphology of α-syn aggregates (TEM), in words: did not cause any significant change in morphology

## MKGLSKAKEGVVAA [p5]
αSOs; peptide 10^−6 to 10^−1 mg/ml
  Effect on vesicle permeabilization by αSOs: failed to affect vesicle permeabilization by αSOs
α-syn [1]
  Amount of soluble α-syn monomer left in the supernatant, in words: do not affect the amount of monomer left in the supernatant
α-syn [2]
  Effect on α-syn aggregation (ThT), in words: did not change the lag phase duration
[3]
  Permeabilization of lipid vesicles by peptide alone: did not permeabilize lipid vesicles
α-syn [4]
  Far-UV CD (β-sheet structures): ↓β
α-syn [5]
  ATR–FTIR (amyloid structures): ↓ amyl
  Amount of amyloid structures (ATR–FTIR), in words: slightly decreased the amount of amyloid
α-syn [6]
  Morphology of α-syn aggregates (TEM), in words: did not cause any significant change in morphology

## RQIKIWFQARRMKWKK [p194, Ala scan variant of penetratin]
αSOs; peptide 0.1 mg/ml
  Effect on vesicle permeabilization by αSOs: increased vesicle permeabilization by αSOs
α-syn [2]
  Effect on α-syn aggregation (ThT), in words: inhibitory effect
α-syn [2]; unseeded ThT, 37 °C, versus α-syn alone
  ThT signal end level: ↓↓
[3]; peptide alone, calcein-filled DOPG LUVs, tested range 10^−1–10^−6 mg/ml
  Peptide concentration from which membrane toxicity is shown: > 10^−2 mg/ml
α-syn [4]
  Far-UV CD (β-sheet structures): ↓↓↓β
α-syn [5]
  ATR–FTIR (amyloid structures): ↓↓↓ amyl
  Amount of amyloid structures (ATR–FTIR), in words: decreased
α-syn [6]
  Morphology of α-syn aggregates (TEM), in words: nonfibrillar (amorphous) accumulations

## RQIKIWFQNRRMLWLXaa [pAntp]
Aβ
  Inhibition of amyloid aggregate formation (Aβ fibrillation): particularly effective inhibitors

## RQILIWFQNRRMLWLL [pAntp-BSB1]
Aβ
  Inhibition of amyloid aggregate formation (Aβ fibrillation): particularly effective inhibitors

## SASDSRTFKSSGG [p162]
αSOs; peptide 10^−6 to 10^−1 mg/ml
  Effect on vesicle permeabilization by αSOs: failed to affect vesicle permeabilization by αSOs
α-syn [1]
  Amount of soluble α-syn monomer left in the supernatant, in words: do not affect the amount of monomer left in the supernatant
α-syn [2]
  Effect on α-syn aggregation (ThT), in words: did not change the lag phase duration
[3]
  Permeabilization of lipid vesicles by peptide alone: did not permeabilize lipid vesicles
α-syn [4]
  Far-UV CD (β-sheet structures): ↓β
α-syn [5]
  Amount of amyloid structures (ATR–FTIR), in words: slightly decreased the amount of amyloid
α-syn [6]
  Morphology of α-syn aggregates (TEM), in words: did not cause any significant change in morphology
